Results on 37 molecules are retold here after ChEMBL document CHEMBL3507680, “University of Dundee, Gates Library screen for HepG2 cell viability”.

This data set can be described thus: Human HepG2 cell viability assay in 384 well format. Type of data set: toxicity, cell-based. Details: dose 125 nL, time 70.5 hour; cytotoxicity at 70.5 h: concentration not given beside the values. As to conditions: HepG2 cells, read-out: Inhibition.

Consider `O=S(=O)(c1ccc(F)cc1)N1CCCn2cnc(CN3CCCC3)c2C1`, for which the cytotoxicity at 70.5 h was 3.23%. Then `CCN1C(=O)C2(CCOCC2)c2cc(NC(=O)c3cccn3C)ccc21`, with -0.784%; and `Cc1nnn2c1COCC(CNC(=O)c1ccnnc1)C2` (configuration not stated), with -0.292%. Consider `COc1cc(N2C[C@H]3OCC[C@H]3[C@H](C(=O)NC3CC3)C2)ncn1`, for which the cytotoxicity at 70.5 h is -4.39%. Turning to `Cc1ccc(N2CCCc3sc(C(=O)NCc4cccnc4)nc32)nn1`, the cytotoxicity at 70.5 h is -10.4%. `CN(C)c1nccc(N2CCO[C@H]3CN(CC4CCOCC4)C[C@H]32)n1`: the cytotoxicity at 70.5 h is -7.1%. The result for `CCn1ncc2c1C(COCC1CC1)CN(C(=O)c1cccs1)C2` (configuration not stated) reads 6.27%; that for `Cc1oncc1C(=O)N1CCC2(CCN(Cc3ccccn3)C2=O)C1` (configuration not stated), -0.113%; that for `CCC(C)NC(=O)N1CCCn2cnc(CO)c2C1` (configuration not stated), -7.63%.

`CN1C(=O)C[C@@H]2[C@@H]1CCN2S(=O)(=O)Cc1ccccc1`: the cytotoxicity at 70.5 h is -3.44%. On to `CCN1Cc2c(C(=O)NCC3CC3)ncn2-c2ccccc2S1(=O)=O`, for which the cytotoxicity at 70.5 h is -9.23%.

As for `O=C(N[C@H]1CN[C@H]2CCCO[C@H]21)c1ccno1`, the cytotoxicity at 70.5 h is -4.14%.

For `CN(C)Cc1cncc2c1CCN(Cc1cnn(C)c1)C2`, the cytotoxicity at 70.5 h is -0.555%. Turning to `O=C1[C@H]2CN(Cc3ccc(F)cc3)C[C@H]2CN1c1cncnc1`, the cytotoxicity at 70.5 h was 0.584%. Consider `CCOCC1CN(S(=O)(=O)N(C)C)Cc2cnn(C)c21` (configuration not stated), for which the cytotoxicity at 70.5 h is -6.39%.

For `CN(C)CC1CN(C(=O)NCc2ccccc2)Cc2nccn2C1` (configuration not stated), the cytotoxicity at 70.5 h was -5.97%. Turning to `O=C1COC2(CCN(Cc3cccs3)CC2)CN1c1ccccc1`, the cytotoxicity at 70.5 h is -4.47%. The result for `CN(C)c1nccc(N2CCO[C@H]3CN(Cc4ccsc4)C[C@H]32)n1` reads -6%.

Turning to `O=C(C1CCOCC1)N1C[C@@H]2C[C@@H](c3nc(C4CC4)cs3)O[C@@H]2C1`, the cytotoxicity at 70.5 h turned out to be 8.69%.

In the case of `O=C1COC2(CCN(CC3CC3)CC2)CN1c1ccccc1`, the cytotoxicity at 70.5 h is -9.15%.

In the case of `Cc1ccc(CN2CCc3c(C(=O)N(C)C)nn(C)c3C2)s1`, the cytotoxicity at 70.5 h was -5.06%.

Regarding `CS(=O)(=O)N1CCC2(CN(C(=O)c3cccnc3)C2)C1`, the cytotoxicity at 70.5 h was -2.66%. Turning to `c1ccc(-c2ccc3nc(C4CCN(CC5CC5)CC4)nn3c2)cc1`, the cytotoxicity at 70.5 h is -6.34%. The result for `O=C1C[C@H]2[C@@H](CCN2C(=O)c2ccccc2)N1CCN1CCOCC1` reads -5.41%; that for `COCc1nn(C(C)C)c2c1CCN(Cc1ccc(C)s1)C2`, -8.69%. Regarding `O=C(C1CCOCC1)N1C[C@@H]2[C@@H](C1)OCC(=O)N2Cc1ccncc1`, the cytotoxicity at 70.5 h was -5.97%.

For `O=C(NC[C@H]1OC[C@@H]2CCN(Cc3ccco3)C[C@@H]21)c1ccsc1`, the cytotoxicity at 70.5 h is -5.61%. Then `Cc1ncnc2c1CCN(Cc1ccc3c(c1)OCO3)CC2`, with -3.06%. For the molecule `COc1ccc(CN2CCOC3(CCCN(c4nnc(C)o4)C3)C2)cc1` (configuration not stated), the cytotoxicity at 70.5 h was -2.27%. Take `CS(=O)(=O)N1CCOCC2(CCN(C(=O)c3cccnc3)CC2)C1`: the cytotoxicity at 70.5 h was -7.84%. For the molecule `COCc1cncc2c1CCN(Cc1cnn(C)c1)C2`, the cytotoxicity at 70.5 h is 10.6%.

Regarding `O=C(C1CC=CC1)N1CCc2c(COCc3ccncc3)cncc2C1`, the cytotoxicity at 70.5 h is -10.9%. Take `Cc1ccc(N2CCCC3(COCCN(c4nccs4)C3)C2)nn1` (configuration not stated): the cytotoxicity at 70.5 h is -9.95%. Then `Cc1ncsc1CN1C[C@H](C(=O)N2CCCO2)[C@@H]2CCO[C@@H]2C1`, with -0.785%; and `Cn1ccc(C(=O)NC2CCC23CCN(Cc2cccnc2)CC3)c1` (configuration not stated), with -7.38%; and `c1csc(CN2C[C@@H]3OCCN(CC4CCCO4)[C@@H]3C2)c1` (some centres not stated), with -7.54%.

For the molecule `Cc1cccc(Cn2c3c(ccc2=O)CCN(Cc2ccoc2)CC3)n1`, the cytotoxicity at 70.5 h is -9.52%.
